Tests used:
[1] = tested on: colorectal cancer cell line DLD1; assay: MTT cytotoxic assay, DLD1 cells; assay type: cell-based
Description: (§1) The cytotoxic effects of terpinen-4-ol on cells were measured with the 3-[4,5-dimethylthiazol-2-yl]-2,5 diphenyltetrazolium (MTT) assay. Cells were seeded in 96-well plates (1×10^4 cells/well) in complete medium. After 12-16 hours of growth, different concentrations of each of the described agents were added to the cells in triplicates. 72 h later, the medium was replaced with fresh medium (100 μl per well) containing 1 mg/ml MTT and the cell were further incubated for 2 to 4 h. MTT-formazan crystals were dissolved by the addition of 100 μl extraction buffer. Absorbance at 570 nm and reference wavelength of 690 nm were recorded on an automated microplate reader. The relative number of viable cells compared to control cell line grown under the same condition, but without the added examined agent was determined.

[2] = tested on: colorectal cancer cell line HT29; assay: MTT cytotoxic assay, HT29 cells; assay type: cell-based, Human
Description: as §1

[3] = tested on: pancreatic cancer cell line MIA-PACA; assay: MTT cytotoxic assay, MIA-PACA cells; assay type: cell-based, Human
Description: as §1

[4] = tested on: pancreatic cancer cell line PANC-1; assay: MTT cytotoxic assay, PANC-1 cells; assay type: cell-based, Human
Description: as §1

[5] = tested on: pancreatic cancer cell line COLO 357; assay: MTT cytotoxic assay, COLO 357 cells; assay type: cell-based, Human
Description: as §1, with “Human colon adenocarcinoma grade II cells, HT29; Human colon carcinoma cells, HCT116; Human colonic carcinoma cells, COLO 320; Human cell line” for “The cytotoxic effects”, “metastatic pancreatic adenocarcinoma, COLO 357; Human pancreatic carcinoma epithelial-like cell line, PANC-1; and Human pancreatic carcinoma cells, MIA-PACA” for “terpinen-4-ol on cells”, “grown in high-glucose Dulbecco's modified Eagle's medium (DMEM) supplemented” for “measured”, “5% heat-inactivated (HI) fetal bovine serum (FBS), 1% Glutamine and streptomycin/penicillin. […]” for “the 3-[4,5-dimethylthiazol-2-yl]-2,5 diphenyltetrazolium (MTT) assay.”

[6] = tested on: prostate cancer cell line DU145; assay: MTT cytotoxic assay, DU145 cells; assay type: cell-based, Human
Description: (§2) Androgen-independent, highly anaplastic prostate cancer cell line with moderate metastatic potential, DU145; Aggressive androgen-independent anaplastic cell line, CL-1; and the colorectal adenocarcinoma DLD1 cells were grown in RPMI-1640 medium supplemented with 5% HI-FBS.
as §1

[7] = tested on: prostate cancer cell line CL-1; assay: MTT cytotoxic assay, CL-1 cells; assay type: cell-based
Description: as §2, §1

cancer cell lines = assay: MTT cytotoxic assay, all cancer cell lines examined (general statements); assay type: cell-based; conditions: terpinen-4-ol at a concentration of 0.01%
Description: Human colon adenocarcinoma grade II cells, HT29; Human colon carcinoma cells, HCT116; Human colonic carcinoma cells, COLO 320; Human cell line of metastatic pancreatic adenocarcinoma, COLO 357; Human pancreatic carcinoma epithelial-like cell line, PANC-1; and Human pancreatic carcinoma cells, MIA-PACA were grown in high-glucose Dulbecco's modified Eagle's medium (DMEM) supplemented with 5% heat-inactivated (HI) fetal bovine serum (FBS), 1% Glutamine and streptomycin/penicillin.
as §2
as §1, with “72 h later, the medium was replaced with fresh medium (100 μl per well) containing 1 mg/ml MTT and the cell were further incubated for 2 to 4 h. MTT-formazan crystals were dissolved by the addition of 100 μl extraction buffer.” left out

[8] = tested on: DLD-1 colorectal cancer cell line xenograft; assay: Xenograft model of nude mice bearing DLD-1 colorectal cancer cell line; assay type: in vivo, athymic nude mice
Description: Male athymic nude mice, 6-8 weeks old, (Harlan Laboratories) were housed in sterile cages and handled with aseptic precautions. The mice were fed ad libitum. The therapeutic anti-cancer activity of terpinen-4-ol alone or in combination with additional anti-cancer agents was examined as follows: exponentially growing DLD1 cancer cells were harvested and resuspended at a final concentration of 5×10^6 cells per 0.2 ml PBS per injection. The cells were injected subcutaneously at two sites on the backs of the mice. When tumors were palpable, mice were randomly divided into the treatment groups as described hereinbelow.
At the 9th day after cell injection mice were randomly divided into treatment and control groups and the treatment was started by intra-tumor injection. The control group (5 mice) received 50 μl of a PBS solution with 1% DMSO; the treatment group (5 mice) received 50 μl of PBS solution with 1% DMSO containing 0.1% (v/v) terpinen-4-ol (1A).
Mice were treated every second day. The mice were weighed and tumor volume was measured every three days (with a caliper) starting from the onset of treatment with terpinen-4-ol/control. Tumor volume was calculated as 4/3π·a·b^2. At the end of the experiment, the mice were sacrificed by cervical dislocation after anesthesia and the tumors were excised and measured for volume and weight. Half of each tumor was preserved in −80° C. and the other half was preserved in 4% formaldehyde.
At the 11th day after cell implantation, mice were randomly divided into groups and the treatment started. The chemotherapeutic agent (cetuximub, referred to hereinafter by its trade name Erbitox®) was administered via intraperitoneal (i.p) injection 24 hours before administration of terpinen-4-ol. The terpinen-4-ol was administered directly into the tumor (intra-tumor injection).
Mice were treated every second day for 2 weeks. Mice were weighed and tumor volume was measured with a caliper before each additional treatment. Tumor volume was calculated as 4/3π·a·b^2.

human M14 melanoma cells = conditions: Calcabrini A et al., 2004; cited from earlier work
[9] = tested on: drug (adriamicin)-resistant cell line (ADR); conditions: cell line expressing high levels of P-glycoprotein; Calcabrini A et al., 2004; cited from earlier work
[10] = tested on: murine AE17 mesothelioma tumor cell line; conditions: Greay S J et al., 2010; cited from earlier work
[11] = tested on: murine B16 melanoma tumor cell line; conditions: Greay S J et al., 2010; cited from earlier work

CC1=CCC(O)(C(C)C)CC1 (stereo not drawn) [terpinen-4-ol, 4-methyl-1-(1-methylethyl)-3-cyclohexen-1-ol]
concentration dependence of cytotoxic effect ([1]; 0.005%, 0.01%, 0.02% and 0.10% (v/v), FIG. 2A): concentration dependent | dependence of cytotoxic activity on DMSO ([1]; 0.01% DMSO added to medium containing 0.01%, 0.05% or 0.10% terpinen-4-ol, FIG. 1A): does not depend on the presence of DMSO | concentration dependence of cytotoxic effect ([2]; 0.005%, 0.01%, 0.02% and 0.10% (v/v), FIG. 2B): concentration dependent | dependence of cytotoxic activity on DMSO ([2]; 0.01% DMSO added to medium containing 0.01%, 0.05% or 0.10% terpinen-4-ol, FIG. 1B): does not depend on the presence of DMSO | cytotoxic activity in the presence of DMSO compared to without ([2]; 0.01% DMSO, FIG. 1B): lower activity | concentration dependence of cytotoxic effect ([3]; 0.005%, 0.01%, 0.02% and 0.10% (v/v), FIG. 2E): concentration dependent | dependence of cytotoxic activity on DMSO ([3]; 0.01% DMSO added to medium containing 0.01%, 0.05% or 0.10% terpinen-4-ol, FIG. 1D): does not depend on the presence of DMSO | concentration dependence of cytotoxic effect ([4]; 0.005%, 0.01%, 0.02% and 0.10% (v/v), FIG. 2F): concentration dependent | dependence of cytotoxic activity on DMSO ([4]; 0.01% DMSO added to medium containing 0.01%, 0.05% or 0.10% terpinen-4-ol, FIG. 1C): does not depend on the presence of DMSO | concentration dependence of cytotoxic effect ([5]; 0.005%, 0.01%, 0.02% and 0.10% (v/v), FIG. 2G): concentration dependent | dependence of cytotoxic activity on DMSO ([5]; 0.01% DMSO added to medium containing 0.01%, 0.05% or 0.10% terpinen-4-ol, FIG. 1E): does not depend on the presence of DMSO | concentration dependence of cytotoxic effect ([6]; 0.005%, 0.01%, 0.02% and 0.10% (v/v), FIG. 2C): concentration dependent | dependence of cytotoxic activity on DMSO ([6]; 0.01% DMSO added to medium containing 0.01%, 0.05% or 0.10% terpinen-4-ol, FIG. 1F): does not depend on the presence of DMSO | concentration dependence of cytotoxic effect ([7]; 0.005%, 0.01%, 0.02% and 0.10% (v/v), FIG. 2D): concentration dependent | dependence of cytotoxic activity on DMSO ([7]; 0.01% DMSO added to medium containing 0.01%, 0.05% or 0.10% terpinen-4-ol, FIG. 1G): does not depend on the presence of DMSO | cytotoxic effectiveness (cancer cell lines): moderately effective | volume of the implanted tumor ([8]; Example 5, intra-tumor injection of 50 μl 0.1% terpinen-4-ol (about 1.65 mg/Kg per injection) every second day, vs control, FIG. 5A): significantly reduced | weight of the implanted tumor ([8]; Example 5, intra-tumor injection of 50 μl 0.1% terpinen-4-ol (about 1.65 mg/Kg per injection) every second day, vs control, end of assay, FIG. 5B): significantly reduced | effect on the tumor growth ([8]; Example 6, 0.1% terpinen-4-ol intra-tumor, after two weeks of treatment): only minor effect | reduction of tumor size compared to control ([8]; Example 6, 50 μl 0.1% terpinen-4-ol intra-tumor every second day, after two weeks of treatment, FIG. 6): about 3.7% | effect on cell growth (human M14 melanoma cells): impair the growth | effectiveness relative to parental M14 cells [9]: more effective | anti-proliferative effect [10]: significant anti-proliferative effects | anti-proliferative effect [11]: significant anti-proliferative effects
